These results are taken from publication PMC10275055, “Preventing recurrence in Sonic Hedgehog Subgroup Medulloblastoma using the OLIG2 inhibitor CT-179” (Research Square, 2023).

The subject of assay [1] is UW228 MB cell line. Nature of the assay: Cell viability, 7 days treatment, UW228. The class given is cell-based. The following applies: Homo sapiens, 168 h; UW228, 7 days. Here is the method: (§1) Cell proliferation was determined by a CellTiter 96® Non-Radioactive Cell Proliferation Assay (Promega) kit. Absorbance at 490 nm was measured on a Biotek PowerWave (Biotek, USA) plate scanner to obtain raw data. Average absorbance from triplicate wells were plotted against concentration using GraphPad Prism software v.7.0 (GraphPad software). At the indicated time points, cells were stained using FITC-conjugated Annexin V and Annexin V binding buffer (BD Pharmingen™) according to the manufacturer’s instructions. Annexin V or propidium iodide (PI)-positive cells were analyzed using a Fortessa 5 Flow Cytometer (Becton Dickinson) and data was analyzed using FlowJo® software (Tree Star).

The subject of assay [2] is OLIG2-driven transcription (human LHX8 promoter). Description: LHX8 promoter luciferase reporter assay in Daoy cells. It counts as cell-based. The following applies: OLIG2 overexpression, 250 nM, 24 hours. The source says: Promoter region of human LHX8 was amplified by PCR from human genomic DNA extracted from Med-813luci cells with primers shown in STAR METHODS. The promoter region was inserted into the pGL3-Basic luciferase-reporter vector (Promega). Flag-OLIG2 were synthesised as a gBlock flanked by the Nhel and BamHI restriction enzyme sites (Integrated DNA Technologies, Singapore). The gBlock was restriction digested and ligated into the expression vector, pLEX_307 (a gift from Joseph Rosenbluh, Monash University, Australia) to form pLX307/FLAG-OLIG2. Firefly luciferase-reporter construct (300 ng, pGL3-Basic or pGL3-LHX8), pRL Renilla luciferase SV40 Control Reporter Vector (Promega, 50 ng), and pLX307/Flag-OLIG2 (300 ng) or pLX307/empty vector (300 ng) were reverse co-transfected with Daoy cells (1 × 10^5/well) in 24-well plates using Lipofectamine™ 3000 (Invitrogen). CT-179 (250 nM) was added and incubated for 24 hours. The luciferase activity was examined using Dual-Glo® Luciferase Assay System (Promega) according to the manufacturer’s instructions, and the signal was normalised to vector controls.
Background: Reporter assays use an easily measured gene product as a stand-in for the process of interest.

The test system of assay [3] is R403 and R902 MBOs. Nature of the assay: MB explant organoids (MBOs), cleaved caspase-3 staining. The class given is cell-based, human. The following applies: 1 μM, 48 hours, CT-179 alone. The source says: MB cell lines Daoy, UW228, and D283 were obtained from the American Type Culture Collection (ATCC) and cultured in RPMI supplemented with 1% Penicillin-Streptomycin, 1% GlutaMax-I CTS (Gibco) and 10% fetal bovine serum (FBS) (Gibco). MB002, D425 and PER547 primary cell lines were kindly provided by Dr. Tobias Schoep (Telethon Kids Institute, WA). Med-2312 PDX, Neo-113 PDX, Med-2112 PDX, Med-113 PDX and Med-813 PDX were filter tissues purchased from the Olson Laboratory (https://research.fhcrc.org/olson/en/btrl.html). Cell lines derived from the corresponding PDX tissues were labelled as primary cell lines. MB-R201 PDX is a MB PDX model generated and established in our laboratory. MB-R203 is a primary MB cell line. Primary cell lines were derived from MB patient specimens and cultured either in serum-free media grown as spheres or on matrigel. The serum-free media was prepared as previously described. Fresh surgically resected MB tissues were obtained from Queensland Children’s Tumor Bank. MB explant organoids (MBOs), R403 and R901, were generated by microdissection under a stereomicroscope (Zeiss) within a laminar flow biosafety cabinet. The MBOs were cultured in glioblastoma organoid (GBO) medium modified based on Jacob et al.. All cell lines were incubated at 37 °C under 5% CO2/95% humidified air atmosphere. […]

For assay [4], the system named is Daoy MB cell line. Description: Cell viability, 7 days treatment, Daoy. It counts as cell-based. The following applies: Homo sapiens, 168 h. Here is the method:
as §1

Assay [5] relates to U87-MG glioma cells. Description: Cell viability, OLIG2-negative U87-MG. The class given is cell-based. Conditions: does not express OLIG2. The protocol:
as §1

Molecules are shown by their SMILES.

In general, IC50 refers to the concentration that inhibits the measured activity by half. For `Cc1cc(NCCCN(C)C)nc(NC(=O)Nc2ccc(Cl)c(Cl)c2)n1` [CT-179], the IC50 in assay [1] was found to be 285 nM; in assay [4] it was 144 nM. Also, the “luciferase expression (LHX8 promoter reporter)” value in assay [2] is given as “significantly decreased”. Further, in assay [3], the “cell death, cleaved caspase-3 staining” value is “significant cell death”. Moreover, the growth suppression entry in assay [5] is “not suppressed”.
